# From patent US5696112A, “Fused heterocyclic azepines as vasopressin antagonists” (American Cyanamid Company, priority 1995, dated 1997)
# How the values were obtained:
# [1] = molecular target: T1, Rat Kidney Medullary V2 Receptors (vasopressin V2) (Rattus norvegicus, UniProt Q00788); experiment: Binding Assay to Rat Kidney Medullary V2 Receptors; conditions: rat kidney medullary V2, [3H]Arg8-vasopressin
# T1 construct: Medullary tissues from rat kidneys are dissected out; from tissue; host or cells: rat kidney medulla membranes
# T1 sequence (Q00788 whole entry): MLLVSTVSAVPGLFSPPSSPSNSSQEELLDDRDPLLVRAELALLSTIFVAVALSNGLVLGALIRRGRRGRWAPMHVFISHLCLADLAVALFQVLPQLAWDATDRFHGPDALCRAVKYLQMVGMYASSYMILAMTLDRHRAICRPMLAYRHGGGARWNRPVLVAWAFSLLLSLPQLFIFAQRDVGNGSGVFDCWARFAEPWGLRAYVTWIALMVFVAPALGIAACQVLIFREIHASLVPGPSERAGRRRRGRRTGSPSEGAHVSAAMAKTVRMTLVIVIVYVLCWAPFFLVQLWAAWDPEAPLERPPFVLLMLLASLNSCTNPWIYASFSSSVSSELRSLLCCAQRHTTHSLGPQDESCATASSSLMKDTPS
# Summary of the method: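 Membranes from rat kidney medulla (200 μg protein) were equilibrated for 120 min on the bench with [3H]arginine8-vasopressin, added as a 0.8 nM solution, in Tris-HCl containing MgCl2, heat-inactivated BSA and protease inhibitors. Compounds were dissolved in 50% DMSO, and 1.0 μM unlabeled ligand gave nonspecific binding. Filtration, scintillation counting and competition analysis gave IC50.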
# Vasopressin V2 = Vasopressin V2 Antagonist Activity in Conscious Hydrated Rats; assay type: in vivo, rat; conditions: AVP 0.4 μg/kg i.p.
# Experimental: Vasopressin V2 Antagonist Activity in conscious Hydrated Rats Conscious hydrated rats are treated with compounds under study from 0.1 to 100 mg/kg orally or vehicle. Two to four rats are used for each compound. One hour later, arginine vasopressin (AVP, antidiuretic hormone, ADH) dissolved in peanut oil is administered at 0.4 μg/kg intraperitoneally. Two rats in each test would not receive arginine vasopressin but only the vehicle (peanut oil) to serve as water-loading control. Twenty minutes later each rat is given 30 mL/kg of deionized water orally by gavage and is placed individually in a metabolic cage equipped with a funnel and a graduated glass cylinder to collect urine for four hours. Urine volume is measured and osmolality analyzed by use of a Fiske One-Ten osmometer (Fiske Assoc., Norwood, Mass. USA). Urinary sodium, potassium, and chloride are analyzed by use of ion-specific electrodes in a Beckman E3 (Electrolyte 3) Analyzer. In the following results, […] and […] osmolality relative to AVP-control indicates activity.
# [2] = molecular target: T2, Vasopressin V1 Receptor Subtype in Human Platelet Membranes (Homo sapiens, UniProt P37288); experiment: Binding to V1 Receptor Subtype in Human Platelet membranes
# T2 construct: tissue Hudson Valley Blood Services, Westchester Medical Center, Valhalla, N.Y; host or cells: human platelet membranes from frozen platelet rich plasma
# T2 sequence (P37288 whole entry): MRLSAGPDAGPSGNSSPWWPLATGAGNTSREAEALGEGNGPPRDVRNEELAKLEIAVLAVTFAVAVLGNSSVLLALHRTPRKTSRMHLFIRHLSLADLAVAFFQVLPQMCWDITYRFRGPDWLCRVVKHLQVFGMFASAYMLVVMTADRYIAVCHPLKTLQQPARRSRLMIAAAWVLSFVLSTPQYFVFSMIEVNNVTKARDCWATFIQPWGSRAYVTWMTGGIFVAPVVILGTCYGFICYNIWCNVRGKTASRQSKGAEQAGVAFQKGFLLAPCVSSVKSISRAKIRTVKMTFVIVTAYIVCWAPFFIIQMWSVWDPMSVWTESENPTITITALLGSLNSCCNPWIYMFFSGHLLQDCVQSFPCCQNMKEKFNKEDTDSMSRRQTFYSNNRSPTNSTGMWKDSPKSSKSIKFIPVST
# Experimental: Radioligand Binding Experiments with Human Platelet Membranes
# Platelet Source: Hudson Valley Blood Services, Westchester Medical Center, Valhalla, N.Y.
# Platelet Membrane Preparation:
# Frozen platelet rich plasma (PRP), received from the Hudson Valley Blood Services are thawed to room temperature. The tubes containing the PRP are centrifuged at 16,000×g for 10 min. at 4° C. and the supernatant fluid discarded. The platelets resuspended in an equal volume of 50.0 mMTris.HCl, pH 7.5 containing 120 mM NaCl and 20.0 mM EDTA. The suspension is recentrifuged at 16,000×g for 10 min. This washing step is repeated one more time. The wash is discarded and the lysed pellets homogenized in low ionic strength buffer of Tris.HCl, 5.0 mM, pH 7.5 containing 5.0 mM EDTA. The homogenate is centrifuged at 39,000×g for 10 min. The resulting pellet is resuspended in Tris.HCl buffer, 70.0 mM, pH 7.5 and recentrifuged at 39,000×g for 10 min. The final pellet is resuspended in 50.0 mM Tris.HCl buffer pH 7.4 containing 120 mM NaCl and 5.0 mM HCl to give 1.0-2.0 mg protein per ml of suspension.
# Binding to Vasopressin V1 Receptor Subtype in Human Platelet Membranes:
# In wells of a 96 well format microtiter plate, add 100 μl of 50.0 mM Tris.HCl buffer containing 0.2% BSA and a mixture of protease inhibitors (aprotinin, leupeptin etc.). Then add 20 μl of [^3 H]Ligand: (Manning or Arg^8 Vasopressin), to give final concentrations ranging from 0.01 to 10.0 nM. Initiate the binding by adding 80.0 μl of platelet suspension (approx. 100 μg protein). Mix all reagents by pipetting the mixture up and down a few times. Non-specific binding is measured in the presence of 1.0 μM of unlabeled ligand (Manning or Arg^8 Vasopressin). Let the mixture stand undisturbed at room temperature for ninety (90) min. Upon this time, rapidly filter off the incubate under vacuum suction over GF/B filters, using a Brandel® Harvester. Determine the radioactivity caught on the filter disks by the addition of liquid scintillant and counting in a liquid scintillator
Compound,IC50 [1] [µM],IC50 [2] [µM],Osmolality (Vasopressin V2; 10 mg/kg P.O.) [mOsm/kg],Urine Volume (Vasopressin V2; 10 mg/kg P.O.) [ml/4 hours],Osmolality (Vasopressin V2; 30 mg/kg P.O.) [mOsm/kg],Urine Volume (Vasopressin V2; 30 mg/kg P.O.) [ml/4 hours]
"O=C(Nc1ccc(C(=O)N2CCCCc3sccc32)cc1)c1cc(Cl)ccc1Cl [Example 9, N-[4-[(5,6,7,8-Tetrahydro-4H-thieno[3,2-b]azepin-4-yl)carbonyl]phenyl]2,5-dichlorobenzamide]",0.034,,,,,
"Cc1c(F)cccc1C(=O)Nc1ccc(C(=O)N2CCCCc3sc(Cl)cc32)cc1 [Example 94, N-[4-[(2-Chloro-5,6,7,8-tetrahydro-4H-thieno[3,2-b]azepin-4-yl)carbonyl]phenyl]-3-fluoro-2-methylbenzamide]",0.01,,910,8.8,,
"O=C(Nc1ccc(C(=O)N2CCCCc3sc(Cl)cc32)cc1)c1c(Cl)cccc1Cl [Example 95, N-[4-[(2-Chloro-5,6,7,8-tetrahydro-4H-thieno[3,2-b]azepin-4-yl)carbonyl]phenyl]-2,6-dichlorobenzamide]",,0.19,1122,5,,
O=C(Nc1ccc(C(=O)N2CCCCc3sccc32)c(Cl)c1)c1ccc(F)cc1Cl [Example 183],,0.18,512,8.3,,
"O=C(Nc1ccc(C(=O)N2CCCCc3sc(Cl)cc32)cc1)c1ccc(Cl)cc1Cl [Example 93, 2,4-Dichloro-N-[4-[(2-chloro-5,6,7,8-tetrahydro-4H-thieno[3,2-b]azepin-4-yl)carbonyl]phenyl]benzamide]",0.019,,1056,7.6,,
"O=C(Nc1ccc(C(=O)N2CCCCc3sccc32)c(Cl)c1)c1ccc(Cl)cc1Cl [Example 68, N-[4-[(5,6,7,8-Tetrahydro-4H-thieno[3,2-b]azepin-4-yl)carbonyl]-3-chlorophenyl]-2,4-dichlorobenzamide]",,0.68,647,10.3,,
"Cc1ccc(F)cc1C(=O)Nc1ccc(C(=O)N2CCCCc3sccc32)c(Cl)c1 [Example 70, N-[4-[(5,6,7,8-Tetrahydro-4H-thieno[3,2-b]azepin-4-yl)carbonyl]-3-chlorophenyl]-5-fluoro-2-methylbenzamide]",,0.11,1070,4,,

# Continued, in another order:
IC50 [1] [µM],IC50 [2] [µM],Compound,Osmolality (Vasopressin V2; 10 mg/kg P.O.) [mOsm/kg],Urine Volume (Vasopressin V2; 10 mg/kg P.O.) [ml/4 hours],Osmolality (Vasopressin V2; 30 mg/kg P.O.) [mOsm/kg],Urine Volume (Vasopressin V2; 30 mg/kg P.O.) [ml/4 hours]
0.25,,"Cc1c(F)cccc1C(=O)Nc1ccc(C(=O)N2CCCC(=O)c3sccc32)cc1 [Example 155, N-[4-[(5,6,7,8-Tetrahydro-8-oxo-4H-thieno[3,2-b]azepine-4-yl)carbonyl]phenyl]-3-fluoro-2-methylbenzamide]",1053,4.5,,
0.33,,"O=C(Nc1ccc(C(=O)N2CCCC(=O)c3sccc32)cc1)c1ccc(Cl)cc1Cl [Example 156, N-[4-[(5,6,7,8-Tetrahydro-8-oxo-4H-thieno[3,2-b]azepin-4-yl)carbonyl]-phenyl]-2,4-dichlorobenzamide]",1266,3.8,,
0.25,,"Cc1ccccc1C(=O)Nc1ccc(C(=O)N2CCCC(=O)c3sccc32)cc1 [Example 157, N-[4-[(5,6,7,8-Tetrahydro-8-oxo-4H-thieno[3,2-b]azepin-4-yl)carbonyl]-phenyl]-2-methylbenzamide]",1070,6.5,,
0.01,,"Cc1ccccc1CC(=O)Nc1ccc(C(=O)N2CCCCc3sccc32)cc1 [Example 13, N-[4-[(5,6,7,8-Tetrahydro-4H-thieno[3,2-b]azepin-4-yl)carbonyl]phenyl]2-methylbenzeneacetamide]",,,516,9.5
0.01,,"Cc1ccccc1C(=O)Nc1ccc(C(=O)N2CCCCc3sc(Cl)cc32)cc1 [Example 96, N-[4-[(2-Chloro-5,6,7,8-tetrahydro-4H-thieno[3,2-b]azepin-4-yl)carbonyl]phenyl]-2-methylbenzamide]",,,465,16.1
